Data published in the supplement of paper PMC10307832.

Assays:
Experiment in all cases: relative viability (nuclei count vs DMSO), 5 days (fraction); higher = more cells survive
NCI-H1792 = system: NCI-H1792
Summary of the method: (§1)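 Each reported value is a median over duplicate plates. It expresses relative viability: treated-well nuclei count divided by vehicle-well nuclei count. Lung cancer cell lines in 1536-well plates were dosed by pin tool a day after seeding, alone with one drug or with a fixed anchor-drug dose plus five library-drug doses (not always all listed) in √10 steps, and nuclei were counted after 5 days.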

SK-MES-1 = system: SK-MES-1
Summary of the method: as §1

NCI-H2342 = system: NCI-H2342
Summary of the method: as §1

NCI-H1395 = system: NCI-H1395
Summary of the method: as §1

NCI-H23 = system: NCI-H23
Summary of the method: as §1

COR-L23 = system: COR-L23
Summary of the method: as §1

NCI-H2009 = system: NCI-H2009
Summary of the method: as §1

LC-2-ad = system: LC-2-ad
Summary of the method: as §1

NCI-H358 = system: NCI-H358
Summary of the method: as §1

NCI-H2023 = system: NCI-H2023
Summary of the method: as §1

NCI-H1755 = system: NCI-H1755
Summary of the method: as §1

HCC-366 = system: HCC-366
Summary of the method: as §1

EMC-BAC-2 = system: EMC-BAC-2
Summary of the method: as §1

NCI-H2347 = system: NCI-H2347
Summary of the method: as §1

NCI-H650 = system: NCI-H650
Summary of the method: as §1

NCI-H1437 = system: NCI-H1437
Summary of the method: as §1

COR-L 105 = system: COR-L 105
Summary of the method: as §1

NCI-H1915 = system: NCI-H1915
Summary of the method: as §1

PC-14 = system: PC-14
Summary of the method: as §1

HCC-15 = system: HCC-15
Summary of the method: as §1

NCI-H1793 = system: NCI-H1793
Summary of the method: as §1

201T = system: 201T
Summary of the method: as §1

## CCNC(=O)c1noc(-c2cc(C(C)C)c(O)cc2O)c1-c1ccc(CN2CCOCC2)cc1 [Luminespib] + CC(=O)c1c(C)c2cnc(Nc3ccc(N4CCNCC4)cn3)nc2n(C2CCCC2)c1=O [Palbociclib] (partner 0.5 µM)
NCI-H1792; first compound 0.002 µM
  relative viability: 0.691
NCI-H1792; first compound 0.006325 µM
  relative viability: 0.655
NCI-H1792; first compound 0.02 µM
  relative viability: 0.622
NCI-H1792; first compound 0.06325 µM
  relative viability: 0.316
NCI-H1792; first compound 0.2 µM
  relative viability: 0.278
SK-MES-1; first compound 0.002 µM
  relative viability: 0.296
SK-MES-1; first compound 0.006325 µM
  relative viability: 0.335
SK-MES-1; first compound 0.02 µM
  relative viability: 0.368
SK-MES-1; first compound 0.06325 µM
  relative viability: 0.151
SK-MES-1; first compound 0.2 µM
  relative viability: 0.172
NCI-H2342; first compound 0.002 µM
  relative viability: 0.527
NCI-H2342; first compound 0.006325 µM
  relative viability: 0.527
NCI-H2342; first compound 0.02 µM
  relative viability: 0.438
NCI-H2342; first compound 0.06325 µM
  relative viability: 0.526
NCI-H2342; first compound 0.2 µM
  relative viability: 0.409
NCI-H1395; first compound 0.002 µM
  relative viability: 0.645
NCI-H1395; first compound 0.006325 µM
  relative viability: 0.631
NCI-H1395; first compound 0.02 µM
  relative viability: 0.498
NCI-H1395; first compound 0.06325 µM
  relative viability: 0.338
NCI-H1395; first compound 0.2 µM
  relative viability: 0.344
NCI-H23; first compound 0.002 µM
  relative viability: 0.567
NCI-H23; first compound 0.006325 µM
  relative viability: 0.582
NCI-H23; first compound 0.02 µM
  relative viability: 0.376
NCI-H23; first compound 0.06325 µM
  relative viability: 0.154
NCI-H23; first compound 0.2 µM
  relative viability: 0.14
COR-L23; first compound 0.002 µM
  relative viability: 0.343
COR-L23; first compound 0.006325 µM
  relative viability: 0.274
COR-L23; first compound 0.02 µM
  relative viability: 0.26
COR-L23; first compound 0.06325 µM
  relative viability: 0.0657
COR-L23; first compound 0.2 µM
  relative viability: 0.071
NCI-H2009; first compound 0.002 µM
  relative viability: 0.287
NCI-H2009; first compound 0.006325 µM
  relative viability: 0.172
NCI-H2009; first compound 0.02 µM
  relative viability: 0.113
NCI-H2009; first compound 0.06325 µM
  relative viability: 0.0496
NCI-H2009; first compound 0.2 µM
  relative viability: 0.0514
LC-2-ad; first compound 0.002 µM
  relative viability: 0.473
LC-2-ad; first compound 0.006325 µM
  relative viability: 0.486
LC-2-ad; first compound 0.02 µM
  relative viability: 0.556
LC-2-ad; first compound 0.06325 µM
  relative viability: 0.478
LC-2-ad; first compound 0.2 µM
  relative viability: 0.331
NCI-H358; first compound 0.002 µM
  relative viability: 0.135
NCI-H358; first compound 0.006325 µM
  relative viability: 0.132
NCI-H358; first compound 0.02 µM
  relative viability: 0.102
NCI-H358; first compound 0.06325 µM
  relative viability: 0.0751
NCI-H358; first compound 0.2 µM
  relative viability: 0.0736
NCI-H2023; first compound 0.002 µM
  relative viability: 0.423
NCI-H2023; first compound 0.006325 µM
  relative viability: 0.364
NCI-H2023; first compound 0.02 µM
  relative viability: 0.309
NCI-H2023; first compound 0.06325 µM
  relative viability: 0.0518
NCI-H2023; first compound 0.2 µM
  relative viability: 0.0463
NCI-H1755; first compound 0.002 µM
  relative viability: 0.51
NCI-H1755; first compound 0.006325 µM
  relative viability: 0.474
NCI-H1755; first compound 0.02 µM
  relative viability: 0.44
NCI-H1755; first compound 0.06325 µM
  relative viability: 0.462
NCI-H1755; first compound 0.2 µM
  relative viability: 0.373
HCC-366; first compound 0.002 µM
  relative viability: 0.363
HCC-366; first compound 0.006325 µM
  relative viability: 0.358
HCC-366; first compound 0.02 µM
  relative viability: 0.411
HCC-366; first compound 0.06325 µM
  relative viability: 0.0279
HCC-366; first compound 0.2 µM
  relative viability: 0.0276
EMC-BAC-2; first compound 0.002 µM
  relative viability: 0.543
EMC-BAC-2; first compound 0.006325 µM
  relative viability: 0.495
EMC-BAC-2; first compound 0.02 µM
  relative viability: 0.424
EMC-BAC-2; first compound 0.06325 µM
  relative viability: 0.398
EMC-BAC-2; first compound 0.2 µM
  relative viability: 0.31
NCI-H2347; first compound 0.002 µM
  relative viability: 0.37
NCI-H2347; first compound 0.006325 µM
  relative viability: 0.408
NCI-H2347; first compound 0.02 µM
  relative viability: 0.38
NCI-H2347; first compound 0.06325 µM
  relative viability: 0.384
NCI-H2347; first compound 0.2 µM
  relative viability: 0.301
NCI-H650; first compound 0.002 µM
  relative viability: 0.39
NCI-H650; first compound 0.006325 µM
  relative viability: 0.283
NCI-H650; first compound 0.02 µM
  relative viability: 0.277
NCI-H650; first compound 0.06325 µM
  relative viability: 0.181
NCI-H650; first compound 0.2 µM
  relative viability: 0.0632
NCI-H1437; first compound 0.002 µM
  relative viability: 0.34
NCI-H1437; first compound 0.006325 µM
  relative viability: 0.306
NCI-H1437; first compound 0.02 µM
  relative viability: 0.309
NCI-H1437; first compound 0.06325 µM
  relative viability: 0.273
NCI-H1437; first compound 0.2 µM
  relative viability: 0.22
COR-L 105; first compound 0.002 µM
  relative viability: 0.412
COR-L 105; first compound 0.006325 µM
  relative viability: 0.445
COR-L 105; first compound 0.02 µM
  relative viability: 0.366
COR-L 105; first compound 0.06325 µM
  relative viability: 0.265
COR-L 105; first compound 0.2 µM
  relative viability: 0.289
NCI-H1915; first compound 0.002 µM
  relative viability: 0.562
NCI-H1915; first compound 0.006325 µM
  relative viability: 0.507
NCI-H1915; first compound 0.02 µM
  relative viability: 0.478
NCI-H1915; first compound 0.06325 µM
  relative viability: 0.318
NCI-H1915; first compound 0.2 µM
  relative viability: 0.24
PC-14; first compound 0.002 µM
  relative viability: 0.541
PC-14; first compound 0.006325 µM
  relative viability: 0.367
PC-14; first compound 0.02 µM
  relative viability: 0.315
PC-14; first compound 0.06325 µM
  relative viability: 0.0535
PC-14; first compound 0.2 µM
  relative viability: 0.0542
HCC-15; first compound 0.002 µM
  relative viability: 0.815
HCC-15; first compound 0.006325 µM
  relative viability: 0.776
HCC-15; first compound 0.02 µM
  relative viability: 0.875
HCC-15; first compound 0.06325 µM
  relative viability: 0.321
HCC-15; first compound 0.2 µM
  relative viability: 0.127
NCI-H1793; first compound 0.002 µM
  relative viability: 0.306
NCI-H1793; first compound 0.006325 µM
  relative viability: 0.334
NCI-H1793; first compound 0.02 µM
  relative viability: 0.211
NCI-H1793; first compound 0.06325 µM
  relative viability: 0.151
NCI-H1793; first compound 0.2 µM
  relative viability: 0.165
201T; first compound 0.002 µM
  relative viability: 0.363
201T; first compound 0.006325 µM
  relative viability: 0.366
201T; first compound 0.02 µM
  relative viability: 0.309
201T; first compound 0.06325 µM
  relative viability: 0.352
201T; first compound 0.2 µM
  relative viability: 0.356
